# Test results reported in patent US7323541B2, “Polypeptide DNA thereof and use of the same” (Takeda Pharmaceutical Company Limited, priority 2001, dated 2008).
# Changes are numbered by the printed parent chain. Where no end group is shown, it is not given here.
# Key:
# [1] = target: T1, membrane fraction of TGR23-2 expressing CHO cells (Homo sapiens, UniProt Q6W5P4, N107I/Q344R); assay: GTPγS binding activity in membrane fraction; format: biochemical
# T1 construct: the clones having the cDNA of TGR23-2, which is contained in pTB2174, were selected; expressed in transfected cells; host or cells: hamster CHO/dhfr- cells, vector pAKKO-111H (pAKKO-TGR23-2)
# T1 sequence (Q6W5P4 1-371 N107I/Q344R): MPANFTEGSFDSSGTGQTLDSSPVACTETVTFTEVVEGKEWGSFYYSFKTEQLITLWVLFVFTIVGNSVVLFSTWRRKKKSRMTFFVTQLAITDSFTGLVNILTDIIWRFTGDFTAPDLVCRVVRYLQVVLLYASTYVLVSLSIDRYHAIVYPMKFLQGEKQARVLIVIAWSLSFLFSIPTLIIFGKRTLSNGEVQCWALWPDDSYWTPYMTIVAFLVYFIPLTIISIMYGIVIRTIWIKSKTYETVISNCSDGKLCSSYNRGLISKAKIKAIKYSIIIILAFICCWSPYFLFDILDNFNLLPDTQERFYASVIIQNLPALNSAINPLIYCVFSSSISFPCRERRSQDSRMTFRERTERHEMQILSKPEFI
# Experimental: Enhancing activity of binding of [^35S]-Guanosine 5′-(γ-thio) triphosphate in the membrane fraction of TGR23-2 expressing CHO cells was measured by the following method. Firstly, it is described about preparation of membrane fraction. Twenty (20) ml of homogenation buffer (10 mM HEPES (pH7.3), 5 mM EDTA, 0.52 mM PMSF, 10 μg/ml pepstatin, 8 μg/ml E64, 20 μg/ml leupeptin) was added to 8×10^7 of TGR23-2 expressing CHO cells, and the cells were disrupted using Polytron (12,000 rpm, 30 seconds×3 times). The cell-disrupted fluids were centrifuged (1,000 g for 15 minutes) to get supernatant. Subsequently the supernatant was ultracentrifuged (Beckman type 30 rotor, 30,000 rpm, one hour), and the precipitate obtained was collected as a membrane fraction of TGR23-2 expressing CHO cells. The GTPγS binding activity was assayed as follows. The membrane fraction of TGR23-2 expressing CHO cells was diluted with membrane dilution buffer (50 mM Tris-HCl buffer (pH7.4), 5 mM MgCl2, 150 mM NaCl, 0.03% NaN3, 0.1% BSA, 1 μM GDP) to get cell membrane fraction solution for assay at the protein concentration of […]. Two (2) μl of 50 nM [^35S]-guanosine 5′-(γ-thio) triphosphate (NEN) and sample were added to 200 μl of cell membrane fraction solution for assay, and the mixture was incubated at 25° C. for one (1) hour. The mixture was filtered, and the filter was washed twice with 1.5 ml of washing buffer (50 mM Tris-HCl buffer (pH7.4), 5 mM MgCl2, 1 mM EDTA, 0.03% NaN3, 0.1% BSA). Then the radioactivity on the filter was measured by liquid scintillation counter. Human TGR23-2 ligand (1-20) prepared by the method described in Example 17, rat TGR23-2 ligand (1-18) prepared by the method described in Example 19 and mouse TGR23-2 ligand (1-20) prepared by the method described in Example 20 were administered to TGR23-2 expressing CHO cells at a variety of concentrations according to the method described above, and the GTPγS binding activity was determined.
# [2] = target: T2, TGR23-1 expressing CHO cells (Homo sapiens, UniProt Q6W5P4); assay: Intracellular Ca ion concentration increasing activity using FLIPR; format: cell-based; settings: variety of concentrations
# T2 construct: the clones having the cDNA of TGR23-1, which is contained in pTB2173, were selected; expressed in transfected cells; host or cells: hamster CHO/dhfr- cells, vector pAKKO-111H (pAKKO-TGR23-1), clones No. 49 and No. 52
# T2 sequence (Q6W5P4 1-371): T1 sequence (Q6W5P4 1-371 N107I/Q344R) with I107N, R344Q
# Experimental: (§1) An enhancing activity of intracellular Ca^2+ release was assayed using FLIPR (Molecular Devices, Inc.). The CHO/TGR23-2 cells prepared in Example 1 and selected in Example 2 were plated on 96-well plate at 3×10^4 cells/well and cultured for 24 hours. A loading buffer was prepared by adding 1 vial of Fluo 3-AM to 10 ml of Hanks' solution (pH7.4) containing 2.5 mM Probenecid and 20 mM HEPES (hereafter, Hanks' solution (pH7.4) containing 2.5 mM Probenecid and 20 mM HEPES may be referred to as a washing buffer). The culture medium was discarded from the culture plate and 100 μl/well of the loading buffer were added to the cells. Then, the cells were incubated for 60 minutes in the incubator. After the loading buffer was removed from the culture plate and the cells were washed with the washing buffer, the plate was put in place of FLIPR. A sample was prepared by adding a sample buffer, which 2 mg/ml BSA and 1 mg/ml CHAPS were added to the washing buffer, to lyophilized product, stirring and treating by ultrasonication for 30 minutes, and transferred to 96-well sample plate. This sample plate was also put in place for assay. The enhancing activity of intracellular Ca^2+ release was measured as an increase of fluorescent intensity, which is raised by addition of the sample. Human TGR23-2 ligand (1-20) obtained in Example 17 was administered to TGR23-1 expressing CHO cells and TGR23-2 expressing CHO cells at a variety of concentrations according to the method described in Example 5, and the increasing activity of intracellular Ca ion concentration was determined using FLIPR. […] Rat TGR23-2 ligand (1-18) prepared by the method described in Example 19 and mouse TGR23-2 ligand (1-20) prepared by the method described in Example 20 were administered to TGR23-1 expressing CHO cells and TGR23-2 expressing CHO cells at a variety of concentrations according to the method described in Example 5, and the increasing activity of intracellular Ca ion concentration was determined using FLIPR.
# [3] = target: T3, TGR23-2 expressing CHO cells (Homo sapiens, UniProt Q6W5P4, N107I/Q344R); assay: as above; format: cell-based; settings: variety of concentrations
# T3 construct: the clones having the cDNA of TGR23-2, which is contained in pTB2174, were selected; expressed in transfected cells; host or cells: hamster CHO/dhfr- cells, vector pAKKO-111H (pAKKO-TGR23-2)
# T3 sequence (Q6W5P4 1-371 N107I/Q344R): T1 sequence (Q6W5P4 1-371 N107I/Q344R)
# Experimental: as §1
# [4] = target: T3, TGR23-2 expressing CHO cells; assay: Enhancing activity of intracellular cAMP production; format: cell-based; settings: with forskolin
# Experimental: The CHO/TGR23-2 cells prepared in Example 1 and selected in Example 2 were plated on 24-well plate at 7×10^4 cells/well and cultured for 48 hours. The cells were washed with αMEM medium (pH7.5) containing 0.2 mM 3-isobutyl-methylxanthine, 0.05% BSA and 20 mM HEPES (hereafter, αMEM medium (pH7.5) containing 0.2 mM 3-isobutyl-methylxanthine, 0.05% BSA and 20 mM HEPES may be referred to as a reaction buffer). Subsequently, 0.5 ml of the reaction buffer was added, and the solution was incubated for 30 minutes in the incubator. The reaction buffer was removed and 0.25 ml of the reaction buffer was freshly added to the cells. Then, the cells were admixed with a sample and 0.25 ml of the reaction buffer containing 2 μM forskoline, and incubated at 37° C. for 30 minutes. Intracellular cAMP was extracted by removing the reaction solution and adding 0.5 ml of the solution for cell lysis attached with cAMP EIA Kit (Applied Biosystems). The cAMP level in the extract was quantified with the same kit. Based on this measured value, a calculation was made using the following formula, and the enhancing/inhibiting activity for cAMP production was represented by % of control. The activity of the sample-adding group was calculated using a control value configured in each plate. % of control=(X−C)/(T−C)×100
# X: The cAMP level in the sample-adding group
# T: The means of the cAMP level in 3 wells of positive control (no sample, with stimulus of forskoline)
# C: The means of the cAMP level in 3 wells of negative control (no sample, without stimulus of forskoline)
# In addition, for the same sample, in accordance with the method shown in Example 4, an arachidonic acid metabolite releasing activity was assayed.
# Four microlitters each of the above-mentioned HPLC active fractions of rat whole brain extracts (Fraction numbers 18, 20 and 22 to 23) was added to 100 μl of 0.2 M ammonium acetate and incubated at 37° C. for 2 hours with 3 μg of Pronase. Subsequently, Pronase added, was inactivated by heating in boiling water for 10 minutes. To this solution, one ml of distilled water containing 0.05 mg of BSA and 0.05 mg of CHAPS was added. Further, it was lyophilized. For the lyophilized sample, enhancing activity for intracellular cAMP production was assayed by adding to TGR23-2 expressing CHO cells according to the method shown in Example 3.
# Human TGR23-2 ligand (1-20) prepared by the method described in Example 17 was administered to TGR23-1 expressing CHO cells and TGR23-2 expressing CHO cells at a variety of concentrations according to the method described in Example 3, and the enhancing activity of intracellular cAMP production was determined.
# Further, human TGR23-2 ligand (1-20) and rat TGR23-2 ligand (1-18) prepared by the method described in Example 19 were administered to TGR23-1 expressing CHO cells and TGR23-2 expressing CHO cells at a variety of concentrations, and the same assay as described above was carried out under the condition of no forskolin. A calculation was made using the following formula, and the enhancing activity for cAMP production was represented by % of control: % of control=X/C×100;
# X: The cAMP level in the sample-adding group; and
# C: Control (no sample, without stimulus of forskoline).
Sequence,GTPγS binding activity [1],increase of intracellular Ca ion concentration [2],increase of intracellular Ca ion concentration [3],enhancing activity of intracellular cAMP production [4]
SFRNGVGSGAKKTSFRRAKQ [mouse TGR23-2 ligand (1-20)],enhance the GTPγS binding activity,clearly enhance an increase of intracellular Ca ion concentration,clearly enhance an increase of intracellular Ca ion concentration,–
SFRNGVGSGVKKTS (Rat) [rat TGR23-2 ligand (1-14)],–,–,–,specifically exhibits an enhancing activity for cAMP production
SFRNGVGSGVKKTSF (Rat) [rat TGR23-2 ligand (1-15)],–,–,–,specifically exhibits an enhancing activity for cAMP production
